Test results published in patent US20040260721A1, “Methods and systems for creation of a coherence database” (priority 2003, published 2004).
Entries after “also recorded” stand apart in the source; their conditions may differ.

Experiments:
Saccharomyces cerevisiae = assay: Biochemical and gene expression profiling with pathway analysis of yeast treated with fungicidal drugs; type: cell-based; conditions: inhibitory dose; three replicate samples per drug; single harvest timepoint
Experimental: An experiment was performed to attempt to characterize four fungicidal drugs: Amphoteracin B, Ketaconazole, Fluconazole, and Posaconazole. Yeast samples (Saccharomyces cerevisiae) were treated with an inhibitory dose of each drug, using three replicate samples per drug, and harvested at a single timepoint. Biochemical profiling and gene expression profiling data were gathered on each yeast sample, and summarized and related to KEGG as described in Example 6.

liver = assay: Biochemical profiling (LC/MS) of livers from rats dosed with acetaminophen; type: in vivo; conditions: rat liver
Experimental: Acetaminophen overdose is one of the leading causes of liver failure. In this experiment, rats were dosed with acetaminophen and livers were harvested across a time course. Two doses of acetaminophen were used (50 mg/kg and 1500 mg/kg), as well as a control group that received no acetaminophen. The harvest times were 6, 18, 24, and 48 hours. Three rats (biological replicates) were in each treatment group, wherein a treatment group is defined as each combination of dose and time. […] Still referring to FIG. 2, the information recorded in data tables 221, 223, and 224 could also be recorded in data tables 218 and 219 (time_summary_set, and tissue_summary_set), thus allowing comparison by time or tissue type.
The resulting liver samples were extracted and analyzed by biochemical profiling (BCP) using LC/MS in both positive and negative modes, yielding a biochemical profile containing intensities on more than 100 compounds. Three technical replicates of each rat liver were analyzed. […]
A summary set was created for each treatment group, and the experimental information associated with that treatment group (treatment, dosage, timepoint, baseline of comparison) was recorded in the coherence database. […] Comparing a treated group to a control group created summaries that were recorded in the treatment_summary_set data table (FIG. 2, table 217) of the coherence database schema. […]

| Structure (SMILES) | comparison of pathway perturbations between treatments (Saccharomyces cerevisiae) | timepoint with most perturbed compounds (biochemical profile vs matched control) (liver; 50 mg/kg and 1500 mg/kg, harvest at 6, 18, 24 and 48 hours) | pathway showing the primary metabolic disturbance (liver; 18 hour timepoint, pathway viewing tool (KEGG)) |
| --- | --- | --- | --- |
| OC(Cn1cncn1)(Cn1cncn1)c1ccc(F)cc1F [Fluconazole] | perturbations that were unlike those of Amphoteracin B | – | – |
| CC[C@@H]([C@H](C)O)n1ncn(-c2ccc(N3CCN(c4ccc(OC[C@@H]5CO[C@@](Cn6cncn6)(c6ccc(F)cc6F)C5)cc4)CC3)cc2)c1=O [Posaconazole] | behaved most like Fluconazole; also recorded: perturbations that were unlike those of Amphoteracin B | – | – |
| CC(=O)Nc1ccc(O)cc1 [acetaminophen] | – | more compounds were perturbed at the 18 hour timepoint than any other | nitrogen metabolism pathway was most likely the source of the primary metabolic disturbance |
